Common to all, as to assay: inhibition of tumour cell growth, NCI panel, 48 h
Test [1] has as its system HL-60(TB) leukemia.
Test [2] has as its system NCI-H23 lung.
Test [3] has as its system HCC-2998 colon.
The test system of test [4] is MDA-MB-231 breast.
Test [5] relates to NCI-H226 lung.
Test [6] concerns SNB-75 CNS.
The subject of test [7] is HOP-92 NSCLC.
Test [8] relates to M14 melanoma.
Test [9] relates to ACHN renal.
Test [10] has as its system A549 NSCLC.
Test [11] relates to A498 renal.
The subject of test [12] is EKVX NSCLC.
The subject of test [13] is OVCAR-3 ovarian.
The subject of test [14] is MCF7 breast.
The subject of test [15] is MDA-N.
Test [16] concerns IGROV1 ovarian.
Test [17] has as its system SF-268 CNS.
Test [18] concerns OVCAR-4 ovarian.
Test [19] has as its system HCT-116 colon.
Test [20] has as its system RPMI-8226 leukemia.

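Five compound concentrations were applied to cells in 96-well plates for 48 hours; endpoints were derived by simple linear interpolation of the resulting dose-response curve. TGI: total growth inhibition.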

Regarding `COC(=O)c1ccccc1C1CN=NC12Cc1ccc(C)c(C)c1C2=O` (stereo not given), the TGI in [1] was 69.7 µM; in test [2] it was above 100 µM; in [3], above 100 µM; in test [4], above 100 µM; in [5], above 100 µM; in test [6] it was above 100 µM. Further, the TGI in [7], in test [8], in [9], in test [10], in [11] and in test [12] was above 100 µM each time. Further, the TGI in test [13], in [14], in test [15], in test [16], in test [17] and in test [18] was above 100 µM in each case. In test [19], the TGI was above 100 µM.

As to `CN(C)c1ccc(/C=c2/c3ccccc3n3nc4ccccc4c23)cc1`, the TGI in test [20] was 39.1 µM; in test [1], above 100 µM; in test [2], above 100 µM; in test [4] it was above 100 µM; in [6] it was 27.7 µM; in [7], 90.7 µM. In addition, the TGI in [8] is above 100 µM; in test [9], above 100 µM; in [10], above 100 µM; in test [11], 67 µM; in test [12], above 100 µM; in test [13], above 100 µM. For the same compound, the TGI in [14] was above 100 µM; in test [15] it was 33.6 µM; in test [16], above 100 µM; in [17], above 100 µM; in [19], above 100 µM.

Regarding `CC(C)=NN/C(=N\S(=O)(=O)c1ccc(C)cc1)Nc1ccc(Cl)cc1`, the TGI in test [20], in test [1], in test [2], in test [4], in [5] and in [7] was above 100 µM in each case. Further, the TGI in test [8], in test [9], in [10], in test [11], in test [12] and in [13] was above 100 µM in each case. For the same compound, the TGI in [14], in test [15], in test [16], in [17], in [18] and in [19] was above 100 µM throughout.

Take `CC(=O)OCC1OC(n2c(-c3ccccc3)c(C(C)=O)c(-c3ccc(Cl)cc3)c(C#N)c2=S)C(OC(C)=O)C(OC(C)=O)C1OC(C)=O` (stereo not given): the TGI in [1], in [2], in [3], in [4], in test [5] and in [6] was above 100 µM in each case. For the same compound, the TGI is 71.5 µM in [7]; above 100 µM in test [8]; above 100 µM in [9]; above 100 µM in test [10]; above 100 µM in [11]; above 100 µM in test [12]. The TGI in test [13], in test [14], in test [15], in [16], in [17] and in test [18] was above 100 µM each time. The TGI in [19] is above 100 µM.

For the compound `C=C(C)C1Cc2c(cc(O)c3c(=O)c4c(oc23)C(O)Oc2cc(OC)c(OC)cc2-4)O1` (stereo not given), the TGI in test [20], in test [1], in test [2], in [3], in test [4] and in test [5] was above 10 µM each time. Besides, the TGI in test [7], in [8], in test [9], in test [10], in test [11] and in [12] was above 10 µM in each case. Moreover, the TGI in test [13], in test [14], in [15], in test [16], in test [17] and in test [18] was above 10 µM each time. Besides, in test [19], the TGI is above 10 µM.

As to `CCN1CCN(c2ccc(Nc3ccnc4ccc5c(nnn5C)c34)cc2)CC1`, the TGI came to 25.9 µM in test [1]; 29.4 µM in test [2]; 6.94 µM in test [3]; 27.2 µM in test [4]; 30.5 µM in test [6]; 21.8 µM in test [7]. Besides, the TGI in test [8] worked out at 23.9 µM; in test [9], 11.5 µM; in test [10] it was 22.3 µM; in [11], 29.5 µM; in test [12], 43.9 µM; in test [13], 18.9 µM. Moreover, the TGI in [14] came to 14.8 µM; in test [15], 14.4 µM; in test [16], 32.6 µM; in test [17], 23.1 µM; in [18], 48.2 µM; in test [19], 14.3 µM.

With `COc1ccc(-c2c(=O)[nH]n3c(=S)nc(-c4ccccc4)[nH]c23)cc1OC`, the TGI came out at 39.3 µM in test [1]; 58.3 µM in test [2]; 36.1 µM in test [3]; 97.8 µM in test [4]; 40.7 µM in [5]; 54 µM in test [6]. The TGI in test [7] was 37 µM; in test [8] it was 38 µM; in test [9], 51.1 µM; in test [10] it was above 100 µM; in test [11], 33.1 µM; in test [12], 60.8 µM. Besides, the TGI in test [14] is 36.9 µM; in test [15], 28.3 µM; in test [16] it was 56.7 µM; in [17] it was above 100 µM; in test [18], 61.1 µM; in [19] it was 31.4 µM.

In the case of `CC(C)(C)c1cc(C2NCCO2)cc(C(C)(C)C)c1O` (stereo not given), the TGI in [20] was above 100 µM; in test [1], above 100 µM; in [2], above 100 µM; in [4], 54.8 µM; in [5] it was above 100 µM; in test [6], 30.6 µM. The TGI in test [7], in test [9], in test [11], in test [12], in test [13] and in test [14] was above 100 µM throughout. The TGI in test [15], in test [16], in [17], in [18] and in [19] was above 100 µM throughout.
